Results on twelve molecules are retold here after paper PMC5650337, “A peptidomimetic with a chiral switch is an inhibitor of epidermal growth factor receptor heterodimerization” (Oncotarget, 2017).

Where two headings read alike, the source gives them in different places. Where a SMILES comes first, the peptide text is derived from it.

The subject of assay [1] is BT-474 breast tumors. The experiment in a line: Xenograft model of breast cancer. Format: in vivo, athymic nude mice. As to conditions: BT-474 xenograft. The procedure:
All animals were handled according to the approved protocol from IACUC at the University of Louisiana at Monroe. Athymic nude mice (Foxn1nu/Foxn1+, female, 4–5 weeks) were purchased from Harlan Laboratories (Indianapolis, IN) and maintained in the ULM School of Pharmacy vivarium. After acclimatization of animals to the local environment, estrogen (17β-estradiol) pellets (0.72 mg, 90-day release) were implanted subcutaneously in the mice, under anesthesia. Tumors were induced in mice as described previously. Orthotopic injection of about three-million BT-474 cells suspended in the serum-free RPMI-1640 medium was done at the second left mammary fat pad. Mice were observed every day for tumor formation, and the tumor diameter was measured with calipers, and the tumor volume was calculated. When a tumor diameter of 3 mm was achieved, mice were randomly assigned to four groups of six. These groups contain negative control (vehicle control), positive control (lapatinib), and two treatment groups (compound 9 and 18). The mice were treated for 19 days. Compound 18 was administered near the base of the tumor at a dose of 4 mg/kg twice a week. Control groups received intratumor saline injections twice a week, and lapatinib was administered at 10 mg/kg once a week by intraperitoneal injection. The marker to end the experiments was based on tumor doubling time rather than tumor volume. Since tumor doubling time was 4 times in 19 days, experiments were stopped on the 19th day. Tumor-bearing mice were sacrificed, and three tumors per group were harvested and maintained at –80°C and the remaining three tumors were fixed in paraffin blocks. Microsections (5 µm) of paraffin fixed tumors were stained with hemotoxylin and eosin (H&E) and observed for necrosis by a pathologist. All data are presented as the mean ± SE. Statistical differences were evaluated by Mann-Whitney U test as well as one-way ANOVA analysis of data from different groups, and the criterion for statistical significance was p < 0.05.

Assay [2] has as its target T1, HER2:HER3 heterodimerization in tumor sections (Homo sapiens, UniProt P04626).
T1 construct: from tissue; host or cells: BT-474 xenograft tumours grown in athymic nude mice
The experiment in a line: PLA on xenograft tumor sections. Format: in vivo, athymic nude mice. How it is done:
Western blot and PLA assay were carried out on tumor sections as described before. Immunoblot analysis was performed to evaluate the levels of total HER2 and phosphorylated HER2. Tumor sections were deparaffinized using xylene and rehydrated with decreasing concentrations of ethanol. Antigen retrieval on the microsections of the breast tumors was done in a steaming sodium citrate buffer (10 mM, 0.05% Tween-20, pH 6.0) for 5 min. The tumor sections were then used to analyze inhibition of HER2:HER3 dimerization using PLA.

The test system of assay [3] is SKBR-3 cells. Nature of the assay: cells. As to conditions: Homo sapiens, SK-BR-3, 72 h, read-out: IC50 SKBR-3(+).
Procedure: (§1) Cellular assays were performed using BT-474, SKBR-3, Calu-3, MCF-7, and MCF-10A cells (ATCC). Antiproliferative activity was measured by CellTiter-Glo®, [49] a luminescence-based cell viability assay. In a 96-well plate, 1 × 10^4 cells/well were seeded and incubated overnight at 37°C and 5% CO2. Stock solutions of peptidomimetics were prepared by dissolving 1.5 mg/mL of compounds in DMSO. Stock solution of the compounds were diluted using the serum-free medium to prepare solutions of different concentrations of compounds. Compounds in the medium were added to the wells in triplicate and incubated for 72 h. As controls, cells treated with 1% sodium dodecyl sulfate and 1% dimethyl sulfoxide were used. At the end of the experiment, CellTiter-Glo® reagent was added, and luminescence was measured by a plate reader. A dose response curve was generated using luminescence vs concentration of compounds and IC50 values were obtained using Prism® (GraphPad Software, La Jolla, CA). Experiments were repeated at least three times to obtain standard deviation values.
In assay [4] the test system is SKBR-3 cells.
Procedure: as §1
Assay [5] deals with T2, HER2:HER3 dimerization in transfected U2OS cells (Homo sapiens, UniProt P04626).
T2 construct: host or cells: U2OS
Nature of the assay: Enzyme fragment complementation (PathHunter) assay. Format: cell-based. The conditions noted are these: for Inhibition of HER2:HER3 dimerization (PathHunter): in the presence of 0.3 µM NRG1. The procedure:
A Pathhunter assay kit was obtained from DiscoverX, and enzyme fragment complementation assay was carried out. U2OS cells transfected with HER3:HER2 were used for the assay. After cells were attached to the wells, they were incubated with compound 18 and controls at different concentration in the presence of neuregulin-1 (NRG-1) at 0.3 µM concentration. After 24 h of incubation, reagents were added, and luminescence was measured and compared with a control without any compound. A plot of luminescence versus concentration was obtained to measure the dimerization of HER3:HER2 and its inhibition by compound 18.

Assay [6] concerns SKBR-3 cells. Further details: method as in PMID 21887403, PMID 20919746, PMID 25346057, PMID 24222531, PMID 19703026. The conditions noted are these: Table 2, compounds marked * reported earlier; read-out: Antiproliferative activity (IC50 µM) SKBR-3 cells; cited from earlier work.
The test system of assay [7] is MCF-7 cells. The experiment in a line: Antiproliferative activity (CellTiter-Glo). Format: cell-based. As to conditions: breast cancer cells that do not overexpress HER2, 72 h. From the text:
Erlotinib was from Sigma (Sigma-Aldrich Chemie GmbH).

The target in assay [8] is T3, HER2 ECD (domains I to IV) (Homo sapiens, UniProt P04626).
T3 construct: Extracellular domains of proteins HER2, EGFR, HER3, and HER4 purchased from Leinco Technologies; purchased Leinco Technologies (St. Louis, MO)
The experiment in a line: Surface plasmon resonance analysis. As to conditions: protein immobilized on CM5 chip, substance as analyte. Format: binding. How it is done:
Surface plasmon resonance analysis was performed using GE X100. Extracellular domains of proteins HER2, EGFR, HER3, and HER4 purchased from Leinco Technologies (St. Louis, MO). […] Compound 18 and controls were used as analytes. Compound 18 at different concentrations (0 to 200 µM) was passed through an SPR chip, and binding kinetics were analyzed for each of the EGFR bindings. A blank subtracted sensorgram for compound 18 was represented.
Background: Surface plasmon resonance follows binding to a sensor surface in real time, without labels.

For assay [9], the system named is BT-474 cells. The conditions noted are these: read-out: IC50 BT-474 (+); HER2-overexpressing breast cancer cells, 72 h.
Procedure: as §1
In assay [10] the test system is SKOV-3 cells. As to conditions: read-out: IC50 SKOV-3(+); HER2-overexpressing ovarian cancer cells, 72 h.
Procedure: as §1
Assay [11] has as its system Calu-3 cells. As to conditions: read-out: IC50 Calu-3 (+); HER2-overexpressing lung cancer cells, 72 h.
Procedure: as §1
The mark [12] stands for this setting: read-out: Antiproliferative activity (IC50 µM) SKBR-3 cells, Table 2, compound 18 and diastereoisomers.

Consider `CS(=O)(=O)CCNCc1ccc(-c2ccc3ncnc(Nc4ccc(OCc5cccc(F)c5)c(Cl)c4)c3c2)o1` [Lapatinib, reference compound], for which the “Tumor growth versus vehicle” value in assay [1] (19 days, 18 and 9 4 mg/kg twice a week intratumor, lapatinib 10 mg/kg once a week i.p.) is reported as “significant delay in tumor growth”. For the same molecule, the “HER2:HER3 heterodimerization in tumor sections (PLA)” value in [2] is “red fluorescence due to dimerization of HER2:HER3”. Besides, the IC50 in assay [3] is 0.013 ± 0.003 µM. In the case of `N=C(N)NCCC[C@@H]1NC(=O)[C@H]2CCCN2C(=O)[C@@H]2CCCN2C(=O)[C@H](CCCNC(=N)N)NC(=O)C[C@H](c2cccc3ccccc23)NC(=O)[C@H](Cc2ccccc2)NC(=O)[C@H](CC(=O)O)NC(=O)[C@H](CC(=O)O)NC(=O)[C@H](Cc2ccccc2)NC(=O)C[C@@H](c2cccc3ccccc23)NC1=O` [compound 18-1, Cyclo(1,10)P^1p^2R^3(S-Anapa)^4F^5D^6D^7F^8(R-Anapa)^9R^10] (HELM PEPTIDE1{P.[dP].R.[O=C(C[C@H](N[*:1])c1cccc2ccccc12)[*:2]].F.D.D.F.[O=C(C[C@@H](N[*:1])c1cccc2ccccc12)[*:2]].R}$PEPTIDE1,PEPTIDE1,1:R1-10:R2$$$V2.0), the IC50 in assay [4] (setting [12]) was greater than 50 µM. The same measure, in the same setting: the value for `N=C(N)NCCC[C@@H]1NC(=O)[C@H]2CCCN2C(=O)[C@@H]2CCCN2C(=O)[C@H](CCCNC(=N)N)NC(=O)C[C@@H](c2cccc3ccccc23)NC(=O)[C@H](Cc2ccccc2)NC(=O)[C@H](CC(=O)O)NC(=O)[C@H](CC(=O)O)NC(=O)[C@H](Cc2ccccc2)NC(=O)C[C@H](c2cccc3ccccc23)NC1=O` [compound 18-2, Cyclo(1,10)P^1p^2R^3(R-Anapa)^4F^5D^6D^7F^8(S-Anapa)^9R^10] (HELM PEPTIDE1{P.[dP].R.[O=C(C[C@@H](N[*:1])c1cccc2ccccc12)[*:2]].F.D.D.F.[O=C(C[C@H](N[*:1])c1cccc2ccccc12)[*:2]].R}$PEPTIDE1,PEPTIDE1,1:R1-10:R2$$$V2.0) was 0.743 ± 0.35 µM. Consider `N=C(N)NCCC[C@@H]1NC(=O)[C@H]2CCCN2C(=O)[C@@H]2CCCN2C(=O)[C@H](CCCNC(=N)N)NC(=O)C[C@@H](c2cccc3ccccc23)NC(=O)[C@H](Cc2ccccc2)NC(=O)[C@H](CC(=O)O)NC(=O)[C@H](CC(=O)O)NC(=O)[C@H](Cc2ccccc2)NC(=O)C[C@@H](c2cccc3ccccc23)NC1=O` [compound 18-3, Cyclo(1,10)P^1p^2R^3(S-Anapa)^4F^5D^6D^7F^8(S-Anapa)^9R^10] (HELM PEPTIDE1{P.[dP].R.[O=C(C[C@H](N[*:1])c1cccc2ccccc12)[*:2]].F.D.D.F.[O=C(C[C@H](N[*:1])c1cccc2ccccc12)[*:2]].R}$PEPTIDE1,PEPTIDE1,1:R1-10:R2$$$V2.0), for which the IC50 in assay [4] (setting [12]) is 41.1 ± 3.2 µM. Regarding `N=C(N)NCCC[C@@H]1NC(=O)[C@@H]2CCCN2C(=O)[C@H]2CCCN2C(=O)[C@H](CCCNC(=N)N)NC(=O)C[C@@H](c2cccc3ccccc23)NC(=O)[C@H](Cc2ccccc2)NC(=O)[C@H](CC(=O)O)NC(=O)[C@H](CC(=O)O)NC(=O)[C@H](Cc2ccccc2)NC(=O)C[C@@H](c2cccc3ccccc23)NC1=O` [compound 18-4, Cyclo(1,10)p^1P^2R^3(S-Anapa)^4F^5D^6D^7F^8(S-Anapa)^9R^10] (HELM PEPTIDE1{[dP].P.R.[O=C(C[C@H](N[*:1])c1cccc2ccccc12)[*:2]].F.D.D.F.[O=C(C[C@H](N[*:1])c1cccc2ccccc12)[*:2]].R}$PEPTIDE1,PEPTIDE1,1:R1-10:R2$$$V2.0), in [4] (setting [12]), the IC50 worked out at 0.456 ± 0.13 µM. The same measure, in the same setting: the value for `N=C(N)NCCC[C@@H]1NC(=O)[C@@H]2CCCN2C(=O)[C@H]2CCCN2C(=O)[C@H](CCCNC(=N)N)NC(=O)C[C@H](c2cccc3ccccc23)NC(=O)[C@H](Cc2ccccc2)NC(=O)[C@H](CC(=O)O)NC(=O)[C@H](CC(=O)O)NC(=O)[C@H](Cc2ccccc2)NC(=O)C[C@H](c2cccc3ccccc23)NC1=O` [compound 18-5, Cyclo(1,10)p^1P^2R^3(R-Anapa)^4F^5D^6D^7F^8(R-Anapa)^9R^10] (HELM PEPTIDE1{[dP].P.R.[O=C(C[C@@H](N[*:1])c1cccc2ccccc12)[*:2]].F.D.D.F.[O=C(C[C@@H](N[*:1])c1cccc2ccccc12)[*:2]].R}$PEPTIDE1,PEPTIDE1,1:R1-10:R2$$$V2.0) was 12.8 ± 1.9 µM. Take Ac-f(Anapa)r-NH2 [compound 21]: the “Inhibition of HER2:HER3 dimerization (PathHunter)” value in [5] is recorded as “shown to inhibit HER2:HER3 dimerization”. Moreover, the IC50 in [6] was 0.373 ± 0.15 µM.

With “Cyclo(1,10)GPR- (Anapa)FDEFWR [compound 20]”, the 50% inhibitory concentration (IC50) in assay [6] is greater than 100 µM. Turning to “H2N-K(3-amino-biphenyl propionic acid)F-OH [CP, reference compound]”, the IC50 was greater than 100 µM in assay [7]; greater than 100 µM in assay [9]; greater than 100 µM in [4] (read-out: IC50 SKBR-3(+), HER2-overexpressing breast cancer cells, 72 h); greater than 100 µM in assay [10]; greater than 100 µM in assay [11]. Also, in [8], the “SPR binding to HER2 ECD” value is recorded as “no SPR response was observed”. In assay [5], the “Inhibition of HER2:HER3 dimerization (PathHunter)” value was “did not inhibit HER2:HER3 dimerization”.

Turning to NH2-Arg-Anapa-Phe-Asp-OH [compound 9], in assay [1] (4 mg/kg twice a week), the “Difference in delay of tumor growth between compound 18 and compound 9” value was “not statistically significant”. The IC50 in [6] is 0.445 ± 0.032 µM. Regarding NH2-Arg-Anapa-Phe-OH [compound 5], the IC50 in assay [6] is 0.396 ± 0.022 µM.

Regarding neuregulin-1 [reference compound], the “Induction of HER2:HER3 dimerization (PathHunter)” value in [5] (agonist dose-response) is listed as “concentration dependence of induction of dimerization”.

By IC50 is commonly meant the midpoint of a concentration-inhibition curve.
